Reference: patent EP0497921B1, “METHOD FOR INHIBITING ENZYMATIC SYNTHESIS OF NUCLEIC ACIDS USING ISOPSORALENS” (ISAACS, Stephen T., priority 1989, dated 1991)

What was measured:
calf thymus DNA = test: Equilibrium dialysis, dark binding (association constant); conditions: for Ka: 4°C, five days, dark, isopsoralen:DNA base pair ratio 1:15
Description: Equilibrium Dialysis was used to determine the association ("dark binding") constants of AMIP, AMDMIP and MIP with calf thymus DNA. The tritium labelled isopsoralens were used for the experiment. The method was a modification of that of Isaacs et al. Biochemistry 16, 1058-1066 (1977).
Spectrapor 2 dialysis tubing (Spectrum) was pretreated by boiling in saturated sodium bicarbonate then rinsed thoroughly with double distilled water. Calf thymus DNA (Sigma) was prepared at a concentration of 50 µg/ml in 1 X TE. The samples were prepared by placing 1.0 ml of the DNA solution inside the bag and using enough isopsoralen to provide an isopsoralen:DNA base pair ratio of 1:15. The samples were prepared with the tritiated isopsoralen ("Drug") placed either inside or outside
of the dialysis bag (each sample was placed in a scintillation vial containing a small magnetic stir bar). The samples were stirred at 4°C for five days in the dark. After this period the bags were removed, opened, and the radioactivity inside and outside the bag determined by scintillation counting. The concentration of the DNA was determined by measuring optical density at 260 nm. The […] constant (Ka) was calculated from this information (Table 9). Preparing the samples in duplicate with the isopsoralen both inside and outside the dialysis bag provided a check that the system had come to equilibrium at the end of the dialysis period (the amount of isopsoralen inside and outside the bag at equilibrium should be, and was, the same in both cases).
The association constant, Ka is defined here as Ka = ([P:DNA])/([P] [DNA]) [formula] for the reaction P + DNA = P:DNA where p = free drug in solution, DNA = DNA binding site for the drug, and P:DNA = drug associated with the DNA. The following summarizes the Ka values determined for the compounds: […]

Klenow Polmerase = test: Primer extension on site-specific 71-mer monoadduct template; format: biochemical; conditions: 37°C for 0, 5 or 15 minutes, PAGE, autoradiography
Description: (§1) The sequences that are presented in Figure 26 describe several oligonucleotides that are used in the synthesis of either a normal 71-mer or the identical 71-mer containing a site-specifically placed psoralen or isopsoralen monoadduct. The 71-mer is a sub-sequence of the Human Immunodeficiency Virus (HIV) sequence. (An HIV DNA system is described in a co-pending application, Serial No. 225,725.) SK-39 is a primer oligonucleotide that is complementary to the 3' end of the 71-mers. This primer oligonucleotide can be extended on the 71-mer template to make a complementary strand of the 71-mer.
(§2) Preparation of 71-mers which contain site-specific monoadducts involves 1) preparation of different 15-mer monoadducts from the same unmodified 15-mer (HRI-42), and 2) ligation of the different 15-mer monoadducts to the same 56-mer "extender oligonucleotide" (HRI 102) using a 25-mer oligonucleotide (HRI-45) as a splint. The arrows in Figure 27 indicate the direction of synthesis, while the monoadduct is indicated by a short line that is perpendicular to the oligomer. While each of the 71-mer monoadducts contains the adduct at a base position that is greater than 56 bases from the 5' end, the precise position of the monoadduct is not meant to be indicated.
(§3) To prepare the 15-mer adducts, the 15-mer was incubated with a complementary 10-mer along with psoralen or isopsoralen under hybridization conditions. The mixture was then irradiated to provide the monoadducted 15-mer. While the invention is not dependent on knowing the precise mechanism of coupling, it has generally been believed that the 10-mer directs the isopsoralen to a single TpA site within the double-stranded helix formed by the 10-mer/15-mer hybrid. After isolation of an HPLC peak believed to contain the 15-mer with a single psoralen or isopsoralen monoadduct, these 15-mer monoadducts were ligated to a 56-mer extender in order to provide the monoadducted 71-mers for use as polymerase templates. The ligation reaction therefore utilized three oligonucleotides: the particular psoralen or isopsoralen monoadducted 15-mer, the 56-mer extender, and the 25-mer splint. The ligation complex was hybridized together then ligated. The ligated product was then isolated as a single band by denaturing PAGE.
(§4) To provide highly purified 71-mers which contain a single monoadduct, it was necessary to provide highly purified 15-mer monoadduct prior to the ligation step. This was accomplished by repurification of the HPLC purified monoadducted 15-mers by PAGE. In this way, essentially all the non-monoadducted 15-mer was removed prior to ligation. Separation of 15-mer monoadduct from unmodified 15-mer was readily accomplished by PAGE (while the same technique is not effective for separation of the corresponding unmodified 71-mer and monoadducted 71-mer sequences). In this manner, exceedingly pure monoadducted 71-mers were produced for the primer extension reactions; monoadducted 71-mers (as well as unmodified 71-mers) are used in template-dependent enzymatic extension experiments in examples 43-47 below.
(§5) In this experiment, monoadducted 71-mers (as well as unmodified 71-mers) were used in template-dependent enzymatic extension. AMIP, AMDMIP, and MIP 71-mer monoadducts were made as in Example 17. […] Note that the 3' end of the 71-mer (HRI 55) is complementary to the primer (SK-39) (see also Figure 26). Each of the extension experiments were run at 37°C for 0, 5 or 15 minutes. Each of the reactions were initiated by providing the templates and deoxyribonucleoside 5'-triphosphates (dATP, dGTP, dCTP, and dTTP are collective abbreviated as dNTPs), and by adding the particular polymerase last to start the reaction. For detection, the primer extension reaction utilized 5' ^32P-labelled primer. The reactions were stopped by adding EDTA. Analysis was by denaturing PAGE followed by autoradiography. […]

Reverse Transcriptase = test: as above; format: biochemical; conditions: 37°C for 0, 5 or 15 minutes, PAGE, autoradiography
Description: as §1, §2, §3, §4, §5

E. Coli DNA Polymerase = test: as above; format: biochemical; conditions: 37°C for 0, 5 or 15 minutes, PAGE, autoradiography
Description: as §1, §2, §3, §4, §5

T4 Polymerase = test: as above; format: biochemical; conditions: 37°C for 0, 5 or 15 minutes, PAGE, autoradiography
Description: as §1, §2, §3, §4, §5

[1] = tritiated drug placed inside dialysis bag
[2] = tritiated drug placed outside dialysis bag

Sequence of E. Coli DNA Polymerase (P00582 whole entry): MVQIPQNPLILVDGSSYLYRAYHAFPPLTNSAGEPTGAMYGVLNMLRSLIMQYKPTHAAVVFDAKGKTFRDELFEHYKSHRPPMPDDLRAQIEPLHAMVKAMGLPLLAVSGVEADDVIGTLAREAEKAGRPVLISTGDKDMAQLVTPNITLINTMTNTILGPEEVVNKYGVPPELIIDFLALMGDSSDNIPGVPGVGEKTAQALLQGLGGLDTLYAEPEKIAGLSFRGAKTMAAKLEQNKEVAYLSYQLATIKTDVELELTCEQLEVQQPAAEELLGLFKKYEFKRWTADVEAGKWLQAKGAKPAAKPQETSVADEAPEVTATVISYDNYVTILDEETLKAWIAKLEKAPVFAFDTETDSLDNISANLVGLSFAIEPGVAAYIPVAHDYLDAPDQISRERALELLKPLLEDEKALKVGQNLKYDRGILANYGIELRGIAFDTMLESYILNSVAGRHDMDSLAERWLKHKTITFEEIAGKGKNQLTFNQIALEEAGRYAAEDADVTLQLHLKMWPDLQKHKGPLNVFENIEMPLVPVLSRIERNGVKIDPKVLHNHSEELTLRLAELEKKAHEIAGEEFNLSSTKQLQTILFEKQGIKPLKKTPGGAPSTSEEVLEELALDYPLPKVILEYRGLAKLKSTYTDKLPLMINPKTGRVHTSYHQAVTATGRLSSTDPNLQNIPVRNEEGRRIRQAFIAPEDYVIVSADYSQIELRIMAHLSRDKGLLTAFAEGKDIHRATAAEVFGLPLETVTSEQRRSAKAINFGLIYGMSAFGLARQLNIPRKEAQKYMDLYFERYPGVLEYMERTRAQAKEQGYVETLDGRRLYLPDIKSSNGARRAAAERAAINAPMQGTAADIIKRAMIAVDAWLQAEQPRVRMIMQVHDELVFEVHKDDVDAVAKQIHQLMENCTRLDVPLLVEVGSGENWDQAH

Row | Compound | Ka (calf thymus DNA; [1]) | Ka (calf thymus DNA; [2]) | polymerase stop at adduct (primer extension) (Klenow Polmerase) | polymerase stop at adduct (primer extension) (Reverse Transcriptase) | polymerase stop at adduct (primer extension) (E. Coli DNA Polymerase) | polymerase stop at adduct (primer extension) (T4 Polymerase) | Ka relative to AMDMIP (calf thymus DNA; compared with AMDMIP) [%]
1 | 4'-Aminomethyl-4,5'-dimethylisopsoralen [AMDMIP] | 7.66 x 10^4 | 1.07 x 10^5 | complete stop | complete stop | complete stop | complete stop | –
2 | 5-Aminomethylisopsoralen [AMIP] | 2.96 x 10^4 | 2.21 x 10^4 | not complete stops | complete stops | not complete stops | complete stops | 28
3 | Cc1cc2occc2c2oc(=O)ccc12 [MIP, 5-Methylisopsoralen] | 9.08 x 10^3 | 2.07 x 10^3 | not complete stops | complete stops | not complete stops | complete stops | –
